The values below come from PubChem BioAssay AID608 (Sanford-Burnham Center for Chemical Genomics, 2007).

Active and inactive are the calls of the source. The rule behind the calls is not given here.

This experiment deals with Peptidyl-prolyl cis-trans isomerase FKBP1A (Homo sapiens) (UniProt P62942). Description: small-molecule binding to FKBP12 – biophysical, NMR detection (AID 608). The following applies: purified FKBP12.
Chain of Peptidyl-prolyl cis-trans isomerase FKBP1A (Homo sapiens) (P62942 whole entry, looked up): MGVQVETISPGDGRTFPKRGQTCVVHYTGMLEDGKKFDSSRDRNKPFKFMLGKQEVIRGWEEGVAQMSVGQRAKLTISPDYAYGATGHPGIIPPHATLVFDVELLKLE
Consider `COc1cc2c(cc1OC)C1Cc3ccc(OC)c(OC)c3CN1CC2` (stereo unspecified), for which the Kd – broadly, the free concentration of one partner at which half of the binding sites on the other are occupied at equilibrium, for simple one-to-one binding – was > 4 mM (inactive).
With `COC(=O)c1ccc2ncccc2c1` the figure was > 4 mM (inactive); with `COc1ccccc1CNc1nc2nc(C)cc(=O)n2[nH]1`, > 4 mM (inactive); with `NC(=O)NCCCC(N)C(=O)O` (stereo unspecified), > 4 mM (inactive).
Under `COC(=O)c1noc(-c2ccc(OC)cc2)n1` stands > 4 mM (inactive); under `OC[C@H]1O[C@@H](n2cnc3c(NCc4ccco4)ncnc32)[C@H](O)[C@@H]1O`, > 4 mM (inactive); under `C=C(C)C1CC=C(CO)CC1` (stereo unspecified), > 4 mM (inactive).
With `CC(=O)Nc1cccc(-c2n[nH]c(=S)n2C)c1` the figure was > 4 mM (inactive); with `O=C(c1ccccc1)c1ccc(N2CCNCC2)cc1`, > 4 mM (inactive); with `O=C(O)CN(CCCc1ccccc1)CC(=O)O`, > 4 mM (inactive).
For the molecule `O=C(O)c1csc(-c2cccnc2)n1`, the Kd is > 4 mM (inactive).
Under `COc1ccc(CCC(=O)N2CCOCC2)cc1` stands 0.204 mM; under `O=c1c2ccccc2nc(-c2ccco2)n1-c1nccs1`, > 4 mM (inactive).
Under `Nc1cccc(NC(=O)c2ccco2)c1` stands > 4 mM (inactive); under `CC(=O)Nc1ccc2c(C)cc(=O)[nH]c2c1`, > 4 mM (inactive); under `COc1ccc(-c2cc(=O)c3ccccc3o2)cc1`, > 4 mM (inactive).
For the molecule `Cn1nc(C(C)(C)C)cc1N`, the Kd was > 4 mM (inactive).
For the molecule `CCC(C)OC1CCS(=O)(=O)C1` (stereo unspecified), the Kd is > 4 mM (inactive).
Consider `Cn1ncc(SCc2ccco2)c(Cl)c1=O`, for which the Kd was > 4 mM (inactive).
Under `c1ccc2sc(CCc3nc4ccccc4s3)nc2c1` stands “inactive”; under `CC(=O)c1c(O)c(C)c(O)c2c1OC1=CC(=O)C(C(C)=O)C(=O)C12C` (stereo unspecified), > 4 mM (inactive); under `NCc1ccc(-n2cccc2)cc1`, > 4 mM (inactive).
Take `CC(=O)O[C@H]1C[C@@H](OC(C)=O)C(C)(C)C2C[C@@H](O)[C@]3(C)C(CC[C@@]4(C)[C@H](c5ccoc5)OC(=O)[C@H]5O[C@]543)[C@]21C` (stereo partly specified): the Kd was > 4 mM (inactive).
Under `NC(=S)CN1CCCC1=O` stands > 4 mM (inactive); under `O=C(Nc1ccc2c(c1)CCC2)c1cnccn1`, > 4 mM (inactive); under `O=c1/c(=C\c2cccnc2)sc2nc3ccccc3n12`, > 4 mM (inactive).
For `NC(=S)N1CCC(c2ccccc2)=N1`, the Kd was > 4 mM (inactive).
With `c1ccc(Cn2c(Nn3cnnc3)nc3ccccc32)cc1` the figure was > 4 mM (inactive).
As for `COC(=O)c1cnccc1C(F)(F)F`, the Kd is > 4 mM (inactive).
Under `Nc1ccc2nsnc2c1` stands > 4 mM (inactive); under `Nc1ccn(C2O[C@H](CO)[C@@H](O)[C@H]2O)c(=O)n1` (stereo partly specified), > 4 mM (inactive); under `CCc1c(C)n([O-])c2c([n+]1=O)CCC2`, > 4 mM (inactive).
With `CN(c1ccc(C(=O)N2CCCCC2)cc1)S(C)(=O)=O` the figure was > 4 mM (inactive); with `O=C(Cc1cccs1)Nc1nncs1`, > 4 mM (inactive).
Under `O=c1cc(-c2ccccc2)oc2cc(O)c(O)c(O)c12` stands > 4 mM (inactive); under `COc1ccc(-c2coc3cc(O)ccc3c2=O)c(OC)c1`, > 4 mM (inactive); under `CCCCCCCCCCCC[C@H](C(=O)O)[C@@H](C)C(=O)O`, > 4 mM (inactive).
Regarding `CC(=O)c1ccc(NC(=S)N2CCC(O)CC2)cc1`, the Kd is > 4 mM (inactive).
Under `CC(=O)Nc1ccc(-c2cn3ccsc3n2)cc1` stands > 4 mM (inactive); under `COC(=O)Cc1cc(=O)n(-c2ccccc2)[nH]1`, > 4 mM (inactive); under `Nc1ccc(Cl)nn1`, > 4 mM (inactive).
